Values quoted from earlier work as cited in patent US6348193B1, “Method for inhibiting pathogenic fungi and bacteria in plants using Pseudomonas aureofaciens” (Board of Trustees of Michigan State University, priority 1999, dated 2002).

What was measured:
Magnaporthe poae = details: in vivo
G. graminis var. tritici = details: in the soil atmosphere

## faeriefungin
Magnaporthe poae
  Management of summer patch disease of turfgrass: equal to that of the chemical fungicide fenarimol

## C=C [Ethylene, ethylene]
G. graminis var. tritici
  Concentration inhibitory to G. graminis var. tritici: less than 5 parts-per-million
